Consider one compound from ChEMBL document CHEMBL1137619, “Synthesis, structure-activity relationship and in vivo antiinflammatory efficacy of substituted dipiperidines as CCR2 antagonists” (J Med Chem, 2007).

Structures are written as SMILES.

Type in all cases: ADME, organism-based
Common to all, as to details: in vivo

Series [1] can be described thus: Bioavailability in rat at 10 mg/kg, po.
Series [2] is described as follows: Bioavailability in rat at 10 mg/kg, ip.
Series [3] is described as follows: Half life in rat at 10 mg/kg, po. On the set-up: dose 10 mg/kg, route oral.

The term bioavailability denotes dose-corrected exposure relative to a reference, in per cent. A high value points to much systemic uptake. One may read the half-life as the time needed for the level to fall by half in the phase considered. A lower half-life goes with rapid decline. Consider `O=C(O)[C@H](C1CCN(C(=O)/C=C/c2cc(F)c(F)c(F)c2)CC1)N1CCC(c2c[nH]c3ccccc23)CC1`, for which the bioavailability in series [1] is 15%; in series [2], 100%. The half-life in series [3] was 7 h.
